One block for each compound: values may come before it.
How the values were obtained:
VEGF gene = VEGF gene expression by RT-qPCR in HT-29 cells; type: cell-based, human
Procedure: (§1) The effect on the expression of VEGF, hTERT and c-Myc genes has been studied for CA-4 and its derivatives that show selectivity indexes higher than 0.9 on the HT-29 cell line. The studied derivatives, together with the concentrations to which they have been tested, are CA-4 (15 μM); 4.1 (Gly, 5 μM); 4.5 (L-Pro, 25 μM); 4.9 (L-Met, 25 μM); 6.2 (D-Leu, 25 μM); 6.3 (D-Phe, 25 μM); 6.4 (D-Pro, 25 μM) and 6.5 (D-Ser, 10 μM). The expression of the genes was determined by RT-qPCR methodology, as described in the Materials and Methods section.
(§2) As regards AmCA-4 derivatives, the effect on the expression of the VEGF, hTERT and c-Myc genes has been studied on those that show IC50 in the low nanomolar range on the HT-29 cell line and/or on compounds whose selectivity indexes with respect to this cell line are higher than 1. The studied compounds, together with the concentrations to which they have been tested, are: CA-4 (15 μM), AmCA-4 (15 nM), 7.1 (7 nM), 7.2 (1.5 nM), 7.3 (4 nM), 7.4 (15 nM), 7.5 (2 nM), 7.7 (7 nM), 7.8 (15 nM), 7.9 (30 nM), 8.1 (7 nM), 8.2 (3 nM), 8.3 (10 nM), 8.4 (1.5 nM), 8.5 (4 nM), 8.7 (7 nM), 8.8 (3 nM) and 8.9 (4 nM).
(§3) HT-29 cells at 70–80% confluence were collected, and 1.5 × 10^5 cells were placed in a six-well plate in 1.5 mL of the medium. After 24 h, cells were incubated with the corresponding compounds for 48 h. Cells were collected, and the total cellular RNA from the HT-29 cells was isolated using an Ambion RNA Extraction Kit, according to the manufacturer’s instructions. The cDNA was synthesized by MMLV-RT with […] of extracted RNA and oligo(dT)15, according to the manufacturer’s instructions. Genes were amplified by a thermal cycler and StepOnePlus™ TaqMan® probes. TaqMan® Gene Expression Master Mix Fast, containing the appropriate buffer for the amplification conditions, dNTPs, thermostable DNA polymerase enzyme and a passive reference probe, was used. To amplify each of the genes, the predesigned primers sold by Life Technologies TaqMan® Gene Expression Assays Hs99999903-m1 (β-actin), Hs00900055-m1 (VEGF), Hs00972646-m1 (hTERT) and Hs00153408-m1 (c-Myc) were used.

hTERT gene = hTERT gene expression by RT-qPCR in HT-29 cells; type: cell-based, human
Procedure: as §1, §2, §3

[1] = test system: HEK-293 (human embryonic kidney cells); test: Inhibition of cell proliferation (MTT), nontumor HEK-293; type: cell-based; settings: 48 h of treatment (footnote), average ±SD of three experiments
[2] = test system: A-549 (human pulmonary adenocarcinoma); test: Inhibition of cell proliferation (MTT), A-549; type: cell-based; settings: Homo sapiens, A549, 48 h, 48 h of treatment (footnote), average ±SD of three experiments
Method in brief: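 Antiproliferative activity against A-549 human pulmonary adenocarcinoma cells was measured by MTT assay. Cells were seeded at 25,000/mL in 96-well plates, cultured 24 h, then exposed to compounds at various concentrations. MTT (20 µL, 5 mg·mL^−1) was added for 2 h at 37 °C, formazan dissolved in 200 µL DMSO, and absorbance read at 540 nm. IC50 values came graphically from three independent experiments.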

[3] = test system: MCF-7 (breast adenocarcinoma); test: Inhibition of cell proliferation (MTT), MCF-7; type: cell-based, human; settings: 48 h of treatment (footnote), average ±SD of three experiments
[4] = Homo sapiens; HT-29, 48 h, 15 nM; control 100
[5] = Homo sapiens, HEK293, 48 h, Table 2
[6] = Homo sapiens, MCF7, 48 h, Table 2
[7] = Homo sapiens; HT-29, 48 h, 15 μM; control (DMSO) 100; normalized to β-actin
[8] = Homo sapiens, HT-29, 48 h, 5 μM, control 100
[9] = Homo sapiens, HEK293, 48 h, Table 1
[10] = Homo sapiens, MCF7, 48 h, Table 1
[11] = Homo sapiens; HT-29, 48 h, 25 μM; control 100
[12] = HT-29, 48 h; discussion; concentration per compound
[13] = Homo sapiens, HT-29, 48 h, 25 μM, control 100
[14] = Homo sapiens, HT-29, 48 h, 10 μM, control 100
[15] = Homo sapiens, HT-29, 48 h, 7 nM, control 100
[16] = Homo sapiens, HT-29, 48 h, 2 nM, control 100
[17] = Homo sapiens, HT-29, 48 h, 30 nM, control 100
[18] = Homo sapiens, HT-29, 48 h, 3 nM, control 100
[19] = Homo sapiens, HT-29, 48 h, 10 nM, control 100
[20] = Homo sapiens, HT-29, 48 h, 4 nM, control 100

Structure (SMILES): COc1ccc(/C=C\c2cc(OC)c(OC)c(OC)c2)cc1N [AmCA-4, 3′-aminocombretastatin A-4]
- mrna remaining at 0.015 µM (VEGF gene; [4]): 67%
- mrna remaining at 0.015 µM (hTERT gene; [4]): 50%
- IC50 [1, 5]: 7 ± 1 nM
- IC50 ([2]; Table 2): 117 ± 7 nM
- IC50 [3, 6]: 8 ± 1 nM

Structure (SMILES): COc1ccc(/C=C\c2cc(OC)c(OC)c(OC)c2)cc1O [CA-4, combretastatin A-4]
- mrna remaining at 15 µM (VEGF gene; [7]): 40%
- mrna remaining at 15 µM (hTERT gene; [7]): 85%
- IC50 ([1]; Homo sapiens, HEK293, Table 1): 25000 ± 3000 nM
- IC50 ([2]; Table 1): 428 ± 4 nM
- IC50 ([3]; Homo sapiens, MCF7, Table 1): 1000 ± 200 nM

Structure (SMILES): COc1ccc(/C=C\c2cc(OC)c(OC)c(OC)c2)cc1OCC(=O)NCC(=O)O [Compound 4.1]
- mrna remaining at 5 µM (VEGF gene; [8]): 45%
- mrna remaining at 5 µM (hTERT gene; [8]): 56%
- IC50 [1, 9]: 5000 ± 1000 nM
- IC50 ([2]; Table 1): 24000 ± 4000 nM
- IC50 [3, 10]: 6000 ± 1000 nM

- IC50 ([2]; Table 1): 17000 ± 2000 nM
- IC50 ([3]; Homo sapiens, MCF7, Table 1): 7000 ± 1000 nM
Structure (SMILES): COc1ccc(/C=C\c2cc(OC)c(OC)c(OC)c2)cc1OCC(=O)N[C@H](C(=O)O)C(C)C [Compound 4.2]
- mrna remaining at 25 µM (VEGF gene; [11]): 89%
- mrna remaining at 25 µM (hTERT gene; [11]): 82%
- IC50 ([1]; Homo sapiens, HEK293, Table 1): 4000 ± 1000 nM

Structure (SMILES): COc1ccc(/C=C\c2cc(OC)c(OC)c(OC)c2)cc1OCC(=O)N[C@@H](CCSC)C(=O)O [Compound 4.9]
- downregulation of VEGF gene expression (VEGF gene; [12]): more than 55%
- mrna remaining at 25 µM (VEGF gene; [13]): 37 to 55%
- downregulation of hTERT gene expression (hTERT gene; [12]): more than 55%
- mrna remaining at 25 µM (hTERT gene; [13]): 38%
- IC50 [1, 9]: 40000 ± 4000 nM
- IC50 ([2]; Table 1): > 300000 nM
- IC50 [3, 10]: 13000 ± 2000 nM

Structure (SMILES): COc1ccc(/C=C\c2cc(OC)c(OC)c(OC)c2)cc1OCC(=O)N[C@H](CC(C)C)C(=O)O [Compound 6.2]
- mrna remaining at 25 µM (VEGF gene; [13]): 40%
- mrna remaining at 25 µM (hTERT gene; [13]): 87%
- IC50 [1, 9]: 49000 ± 12000 nM
- IC50 ([2]; Table 1): 68000 ± 1000 nM
- IC50 [3, 10]: 25000 ± 2000 nM

- IC50 ([2]; Table 1): 60000 ± 4000 nM
- IC50 ([3]; Homo sapiens, MCF7, Table 1): 43000 ± 3000 nM
Structure (SMILES): COc1ccc(/C=C\c2cc(OC)c(OC)c(OC)c2)cc1OCC(=O)N[C@H](Cc1ccccc1)C(=O)O [Compound 6.3]
- mrna remaining at 25 µM (VEGF gene; [11]): 77%
- mrna remaining at 25 µM (hTERT gene; [11]): 68%
- IC50 ([1]; Homo sapiens, HEK293, Table 1): 46000 ± 6000 nM

Structure (SMILES): COc1ccc(/C=C\c2cc(OC)c(OC)c(OC)c2)cc1OCC(=O)N1CCC[C@@H]1C(=O)O [Compound 6.4]
- mrna remaining at 25 µM (VEGF gene; [13]): 25%
- mrna remaining at 25 µM (hTERT gene; [13]): 51%
- IC50 [1, 9]: 53000 ± 9000 nM
- IC50 ([2]; Table 1): 95000 ± 14000 nM
- IC50 [3, 10]: 55000 ± 13000 nM

Structure (SMILES): COc1ccc(/C=C\c2cc(OC)c(OC)c(OC)c2)cc1OCC(=O)N[C@H](CO)C(=O)O [Compound 6.5]
- mrna remaining at 10 µM (VEGF gene; [14]): 54%
- mrna remaining at 10 µM (hTERT gene; [14]): 77%
- IC50 [1, 9]: 14000 ± 4000 nM
- IC50 ([2]; Table 1): > 150000 nM
- IC50 [3, 10]: 12000 ± 1000 nM

Structure (SMILES): COc1ccc(/C=C\c2cc(OC)c(OC)c(OC)c2)cc1NC(=O)CNC(=O)OCC1c2ccccc2-c2ccccc21 [Compound 7.1]
- mrna remaining at 0.007 µM (VEGF gene; [15]): 69%
- mrna remaining at 0.007 µM (hTERT gene; [15]): < 70%
- IC50 [1, 5]: 3.5 ± 1.9 nM
- IC50 ([2]; Table 2): 186 ± 11 nM
- IC50 [3, 6]: 4.8 ± 0.5 nM

Structure (SMILES): COc1ccc(/C=C\c2cc(OC)c(OC)c(OC)c2)cc1NC(=O)[C@H](Cc1ccccc1)NC(=O)OCC1c2ccccc2-c2ccccc21 [Compound 7.5]
- downregulation of VEGF gene expression (VEGF gene; [12]): more than 60%
- mrna remaining at 0.002 µM (VEGF gene; [16]): 16%
- mrna remaining at 0.002 µM (hTERT gene; [16]): < 70%
- IC50 [1, 5]: 2.3 ± 2 nM
- IC50 ([2]; Table 2): 270 ± 50 nM
- IC50 [3, 6]: 14 ± 4 nM

Structure (SMILES): COc1ccc(/C=C\c2cc(OC)c(OC)c(OC)c2)cc1NC(=O)[C@H](CCSC)NC(=O)OCC1c2ccccc2-c2ccccc21 [Compound 7.9]
- mrna remaining at 0.03 µM (VEGF gene; [17]): 68%
- mrna remaining at 0.03 µM (hTERT gene; [17]): 77%
- IC50 [1, 5]: 8 ± 4 nM
- IC50 ([2]; Table 2): 407 ± 23 nM
- IC50 [3, 6]: 5.1 ± 0.3 nM

Structure (SMILES): COc1ccc(/C=C\c2cc(OC)c(OC)c(OC)c2)cc1NC(=O)CN [Compound 8.1]
- mrna remaining at 0.007 µM (VEGF gene; [15]): 24%
- mrna remaining at 0.007 µM (hTERT gene; [15]): > 100%
- IC50 [1, 5]: 10 ± 2 nM
- IC50 ([2]; Table 2): 400 ± 70 nM
- IC50 [3, 6]: 9 ± 4 nM

Structure (SMILES): COc1ccc(/C=C\c2cc(OC)c(OC)c(OC)c2)cc1NC(=O)[C@H](C)N [Compound 8.2]
- mrna remaining at 0.003 µM (VEGF gene; [18]): 84%
- mrna remaining at 0.003 µM (hTERT gene; [18]): 74%
- IC50 [1, 5]: < 5 nM
- IC50 ([1]; Table 2): 4 ± 0.1 nM
- IC50 ([2]; Table 2): 611 ± 16 nM
- IC50 [3, 6]: < 5 nM
- IC50 ([3]; Table 2): 4.8 ± 0.5 nM

Structure (SMILES): COc1ccc(/C=C\c2cc(OC)c(OC)c(OC)c2)cc1NC(=O)[C@@H](N)C(C)C [Compound 8.3]
- mrna remaining at 0.01 µM (VEGF gene; [19]): 33%
- mrna remaining at 0.01 µM (hTERT gene; [19]): < 70%
- IC50 [1, 5]: 7.6 ± 0.3 nM
- IC50 ([2]; Table 2): 490 ± 100 nM
- IC50 [3, 6]: 13 ± 2 nM

Structure (SMILES): COc1ccc(/C=C\c2cc(OC)c(OC)c(OC)c2)cc1NC(=O)[C@@H](N)Cc1ccccc1 [Compound 8.5]
- mrna remaining at 0.004 µM (VEGF gene; [20]): 37%
- mrna remaining at 0.004 µM (hTERT gene; [20]): 98%
- IC50 [1, 5]: < 5 nM
- IC50 ([1]; Table 2): 3.5 ± 1.9 nM
- IC50 ([2]; Table 2): 141 ± 3 nM

Structure (SMILES): COc1ccc(/C=C\c2cc(OC)c(OC)c(OC)c2)cc1NC(=O)[C@@H](N)C(C)O (some centres unmarked) [Compound 8.7]
- downregulation of VEGF gene expression (VEGF gene; [12]): more than 60%
- mrna remaining at 0.007 µM (VEGF gene; [15]): 15%
- mrna remaining at 0.007 µM (hTERT gene; [15]): 81%
- IC50 [1, 5]: 14 ± 3 nM
- IC50 ([2]; Table 2): 410 ± 40 nM
- IC50 [3, 6]: 12 ± 1 nM

Structure (SMILES): COc1ccc(/C=C\c2cc(OC)c(OC)c(OC)c2)cc1NC(=O)[C@@H](N)CCSC [Compound 8.9]
- mrna remaining at 0.004 µM (VEGF gene; [20]): 48%
- mrna remaining at 0.004 µM (hTERT gene; [20]): 71%
- IC50 [1, 5]: < 5 nM
- IC50 ([1]; Table 2): 3.7 ± 0.3 nM
- IC50 ([2]; Table 2): 90 ± 30 nM
- IC50 [3, 6]: < 5 nM
- IC50 ([3]; Table 2): 3.4 ± 1.2 nM

Source: paper PMC7037732, “Synthesis of Combretastatin A-4 and 3′-Aminocombretastatin A-4 derivatives with Aminoacid Containing Pendants and Study of their Interaction with Tubulin and as Downregulators of the VEGF, hTERT and c-Myc Gene Expression” (Molecules, 2020)
